Data: patent publication US20230009366A1, “Using Alternating Electric Fields at Different Frequencies to Increase Permeability of the Blood Brain Barrier and also to Provide Other Benefits” (Novocure GmbH, priority 2021, published 2023)

Legend:
[1] = test system: U87-MG/eGFP-fLuc cells; assay: Reversibility of TTFields-induced uptake; assay type: cell-based, human; conditions: TTFields 24 h vs none vs TTFields 24 h followed by no TTFields 24 h
Experimental: To assess the reversibility of the effect of TTFields on cancer cells, U87-MG/eGFP-fLuc cells were subjected to three conditions: (1) No TTFields exposure, standard cell culture conditions (37° C., […], 5% CO2), (2) TTFields exposure for 24 h and (3) TTFields exposure for 24 h followed by no TTFields exposure for 24 h. The readouts of BLI, PpIX fluorescence (5-ALA product) and Dextran-FITC (4 kDa) fluorescence were acquired. All experimental conditions were done in triplicate. […] Here, NS=not significant; BLI=bioluminescent imaging; eGFP=enhanced green fluorescence protein; fLuc=firefly luciferase; 5-ALA=5 aminolevulinic acid; FITC=fluorescein isothiocyanate; PpIX=protoporphyrin IX; and FL=fluorescence.
In vitro tumor treating field apparatus: The coverslips were transferred to a ceramic dish of the Inovitro™ system, which in turn was mounted onto Inovitro™ base plates (Novocure Ltd., Haifa, Israel). Tumor treating fields at 200 kHz (1-4 V/cm) were applied through an Inovitro™ power generator. Incubator ambient temperatures spanned 20-27° C. with a target temperature of 37° C. in the ceramic dishes upon application of the TTFields. Duration of TTFields exposure lasted anywhere from 0.5 to 72 h, after which coverslips were removed and processed for the appropriate bioassays (see below). […]

[2] = test system: U87-MG cells on PCS-201 fibroblasts; assay: 5-ALA uptake (PpIX fluorescence), glioblastoma-fibroblast co-culture; assay type: cell-based, human
Experimental: During glioblastoma resection in patients, 5-ALA is used to aid neurosurgeons in delineating between the tumors and surrounding normal brain tissue. Likewise, to distinguish differences in 5-ALA uptake between glioblastoma and normal cells, a co-culture was developed where U87-MG cells were seeded in the center of a bed of PCS-201 fibroblasts and were subjected to TTFields or to no TTFields. Fluorescent and brightfield photomicrographs confirmed the presence of discrete glioblastoma vs. fibroblast cell regions in the co-culture set-up.
In particular, without TTFields exposure, the GBM cells formed many pockets of adherent neurospheres as was previously reported. […] To generate the data depicted in FIG. 18B, fluorescent panels of 5-ALA uptake (and subsequent PpIX fluorescence, Ex=558 nm, Em=583 nm) for no TTFields and TTFields were obtained. Duration of exposures are 2, 6, and 24 h. Quantification of time course of PpIX accumulation (and thus accumulation of fluorescent flux as expressed as photons/s) in the glioblastoma-fibroblast co-culture platform under TTFields exposed vs. unexposed conditions (p<0.001). Statistical analyses consisted of two-way ANOVA for no TTFields vs. TTFields conditions, and n=3 experiments per time point.

[3] = test system: U87-MG cells; assay: 5-ALA uptake (PpIX fluorescence), single culture; assay type: cell-based, human
Experimental: Experiments were performed to determine the effects of TTFields on uptake of 5-ALA (as measured by PpIX accumulation and its resultant fluorescence) in glioblastoma cells. Because it is difficult to distinguish the margin between tumor and normal cells using the present 5-ALA bioassay, the measurement of PpIX fluorescence was used to address this issue. Investigations were run to determine whether permeation of 5-ALA through the cellular membrane and into the glioblastoma cells could be increased with TTFields exposure. U87-MG cells were exposed or unexposed to TTFields, each for durations of 6-24 h.
To generate the data depicted in FIG. 18A, protoporphyrin IX (PpIX) fluorescence panels were obtained for TTFields-unexposed vs. TTFields-exposed U87-MG cells after 6 and 24 h of exposure. […] All monovariant statistical comparisons between no TTFields vs. TTFields samples done by Student's t-test for n=3 experiments per time point.

[4] = test system: U87-MG cells; assay: 7-AAD accumulation by flow cytometry; assay type: cell-based, human; conditions: 300 kHz, 1.62 V/cm RMS, 24 h; only sample incubated with 7-AAD while subjected to field
Experimental: FIG. 21D depicts the results of an experiment to test how quickly the permeability drops back down after cessation of the alternating electric fields. More specifically, 7-Aminoactinomycin D (7-AAD) is a fluorescent chemical compound with a strong affinity for DNA. […] In this experiment, the cells were treated with an alternating electric field at 300 kHz with a field strength of 1.62 V/cm RMS for 24 hours, at an ambient temperature of 18° C. 7-AAD was introduced into samples at five different times: 15 minutes prior to the cessation of the alternating electric field; immediately after cessation of the alternating electric field; and 15, 30, and 60 minutes after cessation of the alternating electric field. In each case, the cells were incubated with 7-AAD for 30 minutes after introduction of the 7-AAD, followed by flow cytometry analysis of the percentage of cells with increased accumulation of the fluorescent 7-AAD for each of the different timings.
In this experiment, the cells were treated with an alternating electric field at different frequencies with a field strength of 1.62 V/cm RMS for a total of 24 hours, at an ambient temperature of 18° C. and a dish temperature of 37° C. After the first 23.75 hours, 7-AAD was added to the culture and incubated for 15 minutes during which time the alternating electric fields was continued (to complete the 24 hour period). […]

[5] = test system: MDA-MB-435 human melanoma cell line cells; assay: 7-AAD accumulation by flow cytometry; assay type: cell-based
Experimental: FIG. 22A depicts the results of an experiment performed to determine how alternating electric fields affect the permeability of the cell membranes of MDA-MB-435 human melanoma cell line cells. In this experiment, MDA-MB-435 cells were treated with an alternating electric field at 150 kHz with a field strength of 1.62 V/cm for 24 hours, at an ambient temperature of 18° C. and a dish temperature of 37° C. (The dish temperature in this and other examples is higher than the ambient temperature due to heating caused by the alternating electric fields.) After the first 23.75 hours, 7-AAD was added to the culture and incubated for 15 minutes during which time the alternating electric fields was continued (to complete the 24 hour period). After this 15 minute period, alternating electric field application was terminated and the cells were incubated at room temperature for an additional 15 minutes.
In a variation of this experiment, MDA-MB-435 human melanoma cell line cells were treated with an alternating electric field at 150 kHz with a field strength of 1.62V/cm for 24 hours, at an ambient temperature of 18° C. and a dish temperature of 37° C. After this 24 hour period, the alternating electric fields were turned off for 15 minutes, after which the 7-AAD was added. After waiting an additional 15 minutes, the percentage of cells with increased accumulation of the fluorescent 7-AAD was determined using flow cytometry.

[6] = test system: U87-MG/GFP-Luc cells; assay: Drug sensitivity / synergy with TTFields; assay type: cell-based, human
[7] = test system: GBM39 cells; assay: Drug sensitivity with TTFields; assay type: cell-based, human; conditions: TTFields for 3 days vs no TTFields
[8] = test system: pcGBM2/GFP-Luc cells
[9] = test system: human glioblastoma cells; assay: Growth inhibition by TTFields plus Withaferin A; assay type: cell-based
[10] = test system: GBM39/Luc cells; assay: Drug sensitivity / synergy with TTFields; assay type: cell-based, human
[11] = test system: U87-MG/eGFP-fLuc cells; assay: Annexin-V-APC binding (apoptosis positive control); assay type: cell-based, human; conditions: 21 μM, TTFields-unexposed samples
Experimental: Initially, the impact of TTFields on the binding of Annexin-V-APC to the membrane of U87-MG/eGFP-fLuc cells was measured. Annexin-V-APC binding is a signature of early apoptosis which is characterized by ruffling of the membrane.

[12] = test system: MDA-MB-435 cells, wild type; assay: Intracellular accumulation of doxorubicin; assay type: cell-based, human; conditions: 10 μM, one hour; 150 kHz, 1.62 V/cm fields
[13] = test system: MES-SA cells; assay: Intracellular accumulation of doxorubicin; assay type: cell-based; conditions: 10 μM, one hour; 150 kHz, 1.62 V/cm RMS, 24 hours
Experimental: FIG. 26C depicts the results of another experiment performed to determine how 150 kHz alternating electric fields affect the permeability of the cell membranes of MES-SA cells to doxorubicin (543.52 g/mol). In this experiment, MES-SA cells were treated with an alternating electric field at 150 kHz with a field strength of 1.62 V/cm RMS for 24 hours. After the first 23 hours, doxorubicin at a concentration of 10 μM was added and incubated for one hour during which time the alternating electric fields was continued (to complete the 24 hour period). The intracellular accumulation of doxorubicin was then measured.

[14] = test system: MDA-MB-235 cells; assay: Drug sensitivity / synergy with TTFields; assay type: cell-based
[15] = test system: MDA-MB-435 cells, doxorubicin resistant; assay: Intracellular accumulation of doxorubicin; assay type: cell-based, human; conditions: 10 μM, one hour; 150 kHz, 1.62 V/cm fields
[16] = test system: MCF-7 cells, mitoxantrone resistant; assay: Intracellular accumulation of mitoxantrone; assay type: cell-based, human; conditions: 2 μM, one hour; 150 kHz, 1.62 V/cm fields
Experimental: (§1) FIG. 22C depicts the results of a similar experiment using MCF-7 human breast adenocarcinoma cell line cells and mitoxantrone (444.481 g/mol). In this experiment, both wild type and mitoxantrone resistant variants of MCF-7 cells were treated with an alternating electric field at 150 kHz with a field strength of 1.62 V/cm for 23 hours. After this 23 hour period, mitoxantrone at a concentration of 2 μM was added and incubated for one hour, during which time the alternating electric fields was continued. The intracellular accumulation of mitoxantrone was then measured. The intracellular accumulation of mitoxantrone increased for both the wild type cells (compare bar 1 to bar 3) and the mitoxantrone resistant cells (compare bar 2 to bar 4).

[17] = test system: MCF-7 cells, wild type; assay: Intracellular accumulation of mitoxantrone; assay type: cell-based, human; conditions: 2 μM, one hour; 150 kHz, 1.62 V/cm fields
Experimental: as §1

[18] = TTFields for 3 days vs no TTFields

## NCC(=O)CCC(=O)O [5-ALA, 5-aminolevulinic acid]
[1]
  reversibility of increased uptake: reversibly increase uptake
[2]; 24 h TTFields vs no TTFields, p=0.043
  ratio of PpIX fluorescence intensity, U87-MG cells over PCS-201 fibroblast cells: significantly increased
[2]; TTFields-exposed vs unexposed co-cultures, 2, 6, 24 h
  rate of PpIX fluorescence intensity increase: significantly augmented
[3]; 6 h TTFields vs no TTFields, p=0.047
  uptake of 5-ALA (PpIX fluorescence): significantly increased uptake
[3]; 24 h TTFields vs no TTFields, p=0.011
  uptake of 5-ALA (PpIX fluorescence): increase was maintained

## Cc1c2oc3c(C)c(N)cc(C(=O)N[C@@H]4C(=O)N[C@H](C(C)C)C(=O)N5CCC[C@H]5C(=O)N(C)CC(=O)N(C)[C@@H](C(C)C)C(=O)O[C@@H]4C)c3nc-2c(C(=O)N[C@@H]2C(=O)N[C@H](C(C)C)C(=O)N3CCC[C@H]3C(=O)N(C)CC(=O)N(C)[C@@H](C(C)C)C(=O)O[C@@H]2C)c(N)c1=O [7-AAD, 7-Aminoactinomycin D]
[4]
  accumulation of 7-AAD: significant increase in accumulation
[5]; 150 kHz, 1.62V/cm, 24 h, 7-AAD added 15 minutes after fields turned off
  percentage of cells with increased accumulation of 7-AAD: ~20%
[5]; 150 kHz, 1.62 V/cm, 24 h, 7-AAD added for last 15 minutes of field
  percentage of cells with increased accumulation of 7-AAD: ~66%
[5]; control, alternating electric fields not applied
  percentage of cells with increased accumulation of 7-AAD: less than 5%

## O=NN(CCCl)C(=O)NC1CCCCC1 [Lomustine]
[6]; [18]
  sensitivity of cells to drug: improves the sensitivity
[7]
  sensitivity of cells to drug: improves the sensitivity
[8]; [18]
  sensitivity of cells to drug: improves the sensitivity

## CC1=C(CO)C(=O)O[C@@H]([C@@H](C)[C@H]2CC[C@H]3[C@@H]4C[C@H]5O[C@]56[C@@H](O)C=CC(=O)[C@]6(C)[C@H]4CC[C@]23C)C1 [Withaferin A]
[9]
  growth of human glioblastoma cells, TTFields in conjunction with compound: synergistically inhibited the growth
[6]
  synergy of TTFields plus drug: synergy was found
[8]
  synergy of TTFields plus drug: synergy was found
[10]
  synergy of TTFields plus drug: synergy was found
[11]
  Annexin-V-APC binding visualized via fluorescence microscopy: could be visualized

## COc1cccc2c1C(=O)c1c(O)c3c(c(O)c1C2=O)C[C@@](O)(C(=O)CO)C[C@@H]3O[C@H]1C[C@H](N)[C@H](O)[C@H](C)O1 [doxorubicin]
[12]
  intracellular accumulation of doxorubicin: increased
[13]
  increase of intracellular accumulation of doxorubicin: more than 2 ×
[14]
  synergy of TTFields plus drug: Evidence of synergy
[14]; [18]
  sensitivity of cells to drug: improves the sensitivity
[15]
  intracellular accumulation of doxorubicin: increased

## O=C1c2c(O)ccc(O)c2C(=O)c2c(NCCNCCO)ccc(NCCNCCO)c21 [mitoxantrone]
[16]
  intracellular accumulation of mitoxantrone: increased
[17]
  intracellular accumulation of mitoxantrone: increased
